Consider 6 compounds from US6030961A, “Oxyalkylene phosphate compounds and uses thereof” (Bar-Ilan Research & Development Co., Ltd., priority 1997, dated 2000).

pIC50: −log10 of the molar value. “Also recorded” adds a separate entry of the source. Like-named read-outs stand apart in the source and are kept apart here.

Series [1] concerns K562 cells. Kind of series: Hb-containing K562 cells by benzidine staining. Type of series: cell-based. Conditions: for extent of differentiation, dose dependence: hemoglobin accumulation, K562.
Series [2] has as its system SMS-KCN. In words: cells. Conditions: Homo sapiens.
Procedure: (§1) The cell lines listed in Table 2 were grown to 70-80% confluence in complete medium (RPMI 1640 containing 10% fetal calf serum (FCS), 100 IU penicillin, 100 μg/mL streptomycin and 2 mM L-glutamine). Cells were harvested, washed in complete medium and counted. Cell viability was determined by trypan blue exclusion. The cells were placed into soft agar (0.12% in media) and plated at 5,000 viable cells per well onto an agarose underlayer (0.4%) in 24-well plates. After overnight culture, AB or BODP was added at the indicated concentration. Control cells received media alone. As a control for cell death, cells were treated with a superlethal dose of 10 μg/ml of cisplatin. The dosage of AB or BODP which inhibited fifty percent or ninety percent of cell proliferation (IC50 or IC90 respectively) was calculated using the Chou Analysis' Median Effective Dose equation.
(§2) Clonogenicity is determined as the percentage of clones in treated cultures relative to clones in mediumun-treated control cultures.
In series [3] the test system is HL-60 cells.
Procedure: The level of CD11b was measured on HL-60 cells by flow cytometry using a monoclonal antibody (MAb) against CD11b in a standard indirect immunofluorescence assay. Cells were cultured for three or six days with the indicated concentration of BODP. Cultured cells were collected by centrifugation, resuspended at 10^6 cells per 20 μl RPMI+10% FCS and incubated with MAb for 30 minutes at 4° C. The cells were washed twice in cold PBS+10% FCS and incubated with a 1:20 dilution of FITC-conjugated F(ab')^2 fragment of rabbit anti-mouse IgG for 20-30 minutes at 4° C. in the dark. After washing the cells twice in cold PBS+10% FCS, flow cytometry was performed on a FACSstar (Becton Dickson) using an argon ion laser adjusted to excitation wavelength of 488 nm on samples containing 10^4 cells.
Series [4] concerns NGP. In words: Clonogenicity (soft agar) of established tumor cell lines, NGP.
Procedure: as §1, §2
Series [5] relates to human tumor cell lines. In words: Clonogenicity of established tumor cell lines, summary over cell lines.
Procedure: as §1, §2
For series [6], the system named is pancreatic cell line, BxPC-3. In words: Colony-forming assay, 24 hour exposure. Conditions: 24 hour treatment. Type of series: cell-based, human.
Procedure: The effect of 24 hour exposure to BODP or AB was determined by a colony-forming assay on the pancreatic cell line, BxPC-3, which is a primary adenocarcinoma (ACTTnr:CRL-1687). Freshly trypsinized cells were plated at 500 cells/dish in 60 mm^2 tissue culture dishes with the indicated concentration of each compound and incubated for 24 hours at 37° C. in 5% CO2 /air atmosphere. The cultures were washed with PBS, fresh medium was added, and the cultures were incubated for 7-12 days to allow the formation of colonies. Colonies were fixed with methanol, stained with Giemsa and counted. All incubations were performed in triplicate.
The test system of series [7] is β-thalassemia and sickle-cell anemia patients. Particulars: cited from earlier work.
For series [8] the following is noted: U.S. Pat. No. 5,200,553; Nudelman et al.; cited from earlier work.
For series [9], the system named is neoplastic cells. Conditions: in vitro; cited from earlier work.
Series [10] relates to nuclear deacetylase(s). Particulars: cited from earlier work.
Series [11] deals with HL-60 promyelocytic leukemia. Particulars: cited from earlier work.
For series [12], the system named is cancer patients. Particulars: cited from earlier work.
The conditions of series [13]: cited from earlier work.
Series [14] deals with B16 melanoma. Particulars: cited from earlier work.
Series [15] concerns expression of transfected DNA. Particulars: cited from earlier work.
For series [16], the system named is LA1-5S. In words: Clonogenicity (soft agar) of established tumor cell lines, LA1-5S.
Procedure: as §1, §2
The subject of series [17] is K562 cells. Kind of series: Total Hb content of K562 cultures by HPLC. The series is classed as cell-based. Conditions: molar basis vs AB; FIG. 5. The procedure:
(2) Quantitative measurement of fetal hemoglobin (HbF) in K562 culture or human erythroid cultures was determined by ion-exchange high pressure liquid chromatography (HPLC) as described by Fibach et al., Blood 81:1630-1635, 1993.
K562 cells: K562 is an erythroblast cell line (obtained from the ATCC, Rockville, Md.) that develops some properties of erythroid, megakaryocyte or monocyte cells, depending on the specific stimulus, when induced by different chemicals. K562 cells were grown in RPMI medium with 10% FCS, supplemented with 2 mM glutamine. Cells were incubated at 37° C. in a humidified, 5% CO2 incubator.

Series [18] relates to NBAS-5. Kind of series: Clonogenicity (soft agar) of established tumor cell lines, NBAS-5.
Procedure: as §1, §2
The test system of series [19] is SMS-KCN.
Procedure: as §1, §2
Series [20] deals with IMR-32. Kind of series: Clonogenicity (soft agar) of established tumor cell lines, IMR-32.
Procedure: as §1, §2
Series [21] concerns SK-N-MC. Kind of series: Clonogenicity (soft agar) of established tumor cell lines, SK-N-MC.
Procedure: as §1, §2
Series [22] relates to SMS-KAN. Kind of series: Clonogenicity (soft agar) of established tumor cell lines, SMS-KAN.
Procedure: as §1, §2
Series [23] deals with NBL-W-N. Kind of series: Clonogenicity (soft agar) of established tumor cell lines, NBL-W-N.
Procedure: as §1, §2
For series [24], the system named is SK-N-SH. In words: Clonogenicity (soft agar) of established tumor cell lines, SK-N-SH.
Procedure: as §1, §2
The test system of series [25] is human colon carcinoma, leukemia and retinoblastoma cell lines. Particulars: in vitro; cited from earlier work.
The test system of series [26] is reporter gene in primary and immortalized cell lines. Particulars: cited from earlier work.

For `CCCC(=O)O` [AB, arginine butyrate, reference compound], in series [1], the “extent of differentiation, dose dependence” value was “directly related to the drug dose”. The negative logarithm of the IC50 (pIC50) – broadly, the IC50 on a negative log10 scale, so that one unit is a factor of ten – in series [2] is 2.73. The “increase in CD11b at the same concentration” value in [3] (40 μM) is listed as “no increase in CD11b”. Also, the “expression of CD11b” value in series [3] (800 μM) stood at 12%. Further, in series [4] (Homo sapiens), the pIC50 is 3.71 and it took 1620 µM to reach the 90% level (IC90). Moreover, the “inhibition of cell proliferation, dose dependence” value in series [5] is given as “inhibit cell proliferation in a dose-dependent manner”. Also, the “growth inhibition at 100 μM” value in series [6] (100 μM) is reported as “did not cause complete growth inhibition”. Besides, the clinical efficacy result in [7] (clinical trials) is on record as “moderate efficacy”. For the same compound, the side effects entry in [7] (β-thalassemia and sickle-cell anemia patients) was “hypokalemia, headache, nausea and vomiting”.
Regarding `CCCC(=O)OCOC(=O)C(C)(C)C` [AN-9, pivaloyloxymethyl butyrate], the “activity among butyric acid prodrugs” value in series [8] is reported as “most active”.
For the compound `CCCC(=O)O` [BA, Butyric acid], the “differentiating and antiproliferative activity” value in series [9] is “potent differentiating and antiproliferative agent”. In addition, the “effect on nuclear deacetylase(s) and histone acetylation” value in series [10] was “inhibition of nuclear deacetylase(s), resulting in hyperacetylation of histones H3 and H4”. Further, in [11], the expression of c-myc result is “decrease”. The “clinical efficacy in cancer patients” value in [12] (BA and BA salts) is reported as “minimal or transient efficacy”. Further, in series [12] (patients receiving BA), the odor in patients result is reported as “unpleasant odor”. The half-life in vivo entry in series [13] is given as “very short half-lives in vivo”. In series [13] (in vivo), the metabolism result was “metabolized rapidly”. For the same compound, the “expression of c-myc and H-ras oncogenes” value in [14] was “decrease in the expression of c-myc and H-ras oncogenes”. For the same compound, in series [15], the “expression of transfected DNA” value is given as “increase the expression of transfected DNA”.
Regarding `CCCC(=O)OCOP(=O)(OCC)OCC` [BODP, butyroyloxymethyl diethyl phosphate], the pIC50 in series [16] was 4.42; in series [18], 4.68; in series [19], 4.27; in series [20], 4.46; in [21], 4.43; in series [4], 4.77. Further, the pIC50 is 4.35 in series [22], 4.42 in series [23] and 4.82 in [24]. The 90% effect concentration (IC90) (usually the point of the concentration-response curve where the effect stands at 90%) in series [16] turned out to be 105 µM; in series [18], 71 µM; in [20] it was 88 µM; in series [21], 145 µM; in series [4] it was 49 µM; in [22], 128 µM. Also, the results for the IC90 in [23] and in series [24] were 96 µM and 44 µM, respectively. Besides, the “Ratio AB/BODP IC50” value is reported as 42.8 in [16]; 42 in series [18]; 34.7 in series [19]; 25.2 in [20]; 5.8 in series [21]; 11.6 in [4]. In addition, the “Ratio AB/BODP IC50” value in [22] was 25.3; in [23], 12.9; in series [24], 66.5. Further, the “Ratio AB/BODP IC90” value in [16] is reported as 25.5; in [18], 183.5; in series [20], 40.5; in series [21], 9.1; in series [4], 33.1; in [22] it was 16.2. Also, the “Ratio AB/BODP IC90” value was found to be 32 in series [23] and 77.2 in [24]. Also, the “extent of differentiation, dose dependence” value in [1] was “directly related to the drug dose”. Further, the “proportion of Hb-containing cells per total cell population” value in [1] (molar basis vs AB, 5 days exposure, FIG. 4) is “higher proportion of Hb-containing cells”. Moreover, the “total Hb content of the cultures” value in [17] is recorded as “higher activity in inducing erythroid differentiation”. In series [3] (40 μM, four days, 5760 min), the “increase of CD11b expression over untreated cells” value was found to be 7 fold. Further, in series [3] (BODP vs AB), the “differentiation induction, in words” value is listed as “more active differentiation inducer compared to AB”. The “inhibition of cell proliferation, dose dependence” value in series [5] is given as “inhibit cell proliferation in a dose-dependent manner”. Further, the “growth inhibition / clonogenicity inhibition potency, in words” value in series [5] (BODP vs AB) is on record as “more potent growth inhibitor than AB; also recorded: significantly more potent tumor cell clonogenicity inhibitor than AB”. Besides, in series [5] (BODP vs AB), the “sensitivity of the cells to BODP compared with AB” value is reported as “at least an order of magnitude more sensitive”. In addition, the “ratio of IC50 AB:IC50 BODP, median value” in [5] (median over cell lines) was 25.2. For the same compound, the “ratio of IC90 AB:IC90 BODP, median value” in [5] (median over cell lines) was 28.75. Also, the “concentration causing complete inhibition” value in series [6] is “above 50 μM”. Moreover, the “growth inhibition, dose dependence” value in series [6] is recorded as “dose-ependent growth inhibition”.
Consider `CCCC(=O)[O-].[Na+]` [SB, sodium butyrate], for which the apoptosis result in series [25] is on record as “produce apoptosis in vitro”.
On to `CCCC(=O)OCC(COC(=O)CCC)OC(=O)CCC` [Tributyrin], for which, in [26], the “expression of a reporter gene” value was “enhance the expression of a reporter gene”.
